Entries after “also recorded” stand apart in the source; their conditions may differ. Positions of bridges follow the written chain, without caps; N, C: chain ends. Non-standard residues stand in square brackets, D forms with d. Residues, ends and D or L forms follow the SMILES beside them. No end group written: not given here. β2Val = β2-Val (beta2-Val), beta-amino acid; d2Nal = N[C@H](Cc1ccc2ccccc2c1)C(=O)O; β3hP = O=C(O)C[C@@H]1CCCN1; Nle = CCCC[C@H](N)C(=O)O
Key:
[1] = test system: LPS-induced cachexia in rats; experiment: Lipopolysaccharide (LPS)-induced cachexia assay; assay type: in vivo, rat; conditions: for food intake, 24 hours after LPS challenge / body weight (percent of pre-LPS baseline), 24 hours after LPS challenge: 0.2 mg/kg intraperitoneally; for food intake, 24 hours after LPS challenge: FIG. 8A; for body weight (percent of pre-LPS baseline), 24 hours after LPS challenge: FIG. 8B; for anti-cachectic activity after ICV (IVt) administration (in words): intracerebroventricular administration; for peripheral (IP) anti-cachexia activity, feeding (in words): peripheral / intraperitoneal administration after LPS
Procedure: The LPS model uses rats were maintained on a 12 h light/dark schedule with ad libitum access to food and water. Animals were handled daily for a minimum of three consecutive days to decrease non-specific handling stress. On the day of the experiment, individually housed animals received intraperitoneal injections of LPS dissolved in 0.5% low-endotoxin BSA, 0.9% saline or 0.5% BSA in 0.9% saline alone, and were returned to their home cage. The drug or control was administered (ICV, IP, or PO, depending on the type of study) 1-hour after LPS injection.
In the experiments described herein, a series of melanocortin receptor antagonist peptides were examined in a bacterial endotoxin inducing cachexia assay. For this assay, a rat is challenged with a single peripheral injection of lipopolysaccharide (LPS). LPS is a heat-stable lipo-polysaccharide, the major component of the outer membrane (capsule) of gram negative bacteria. In non-capsulated strains, it appears as a cell surface […]. LPS produces a strong immune response, including secretion of the proinflammatory cytokines Tumor Necrosis Factor α (TNFα) and interleukin-1 (IL-1). Proinflammatory cytokines are known factors that induce cachexia.
Rats are maintained on a 12-hour light/dark cycle. Animals are handled daily for a minimum of 5 consecutive days to acclimate them to the handling required for the experiment. […] On the day of the experiment, individually housed animals receive intraperitoneal (IP) injections of LPS dissolved in 0.5% low-endotoxin BSA, 0.9% saline or 0.5% BSA in 0.9% saline alone, and returned in their home cage. Melanocortin receptor antagonist peptides were administered (IP or by gavage, depending on the type of study) one hour after the LPS injection. The extent of cachexia is measured by the reduction in food intake, measured every two hours. The cachexia typically lasts only a single day. However, rats lose up to 5% of their body weight during a 12-hour light cycle, making up this loss plus food needed for normal growth during the 12-hour dark cycle. Thus, failure to eat appropriately during a single dark cycle is determinable from the animal's weight and any changes thereof.
A series of melanocortin receptor antagonist peptides were examined in a bacterial toxin inducing cachexia assay. In this assay, a rat was challenged with a single peripheral injection of lipopolysaccharide (LPS), a bacterial toxin that rapidly induces acute cachexia. The extent of cachexia was measured as a reduction in food intake, measured every two hours. The cachexia typically lasts only a single day.

[2] = TCMCB07 in rat plasma and cerebrospinal fluid after IV administration (HPLC fluorescence, mass spectrometry); assay type: in vivo
Procedure: Urethane-Anesthetized Rats Had Polyethylene (PE)-Tubing Cannulas Placed in their Femoral artery and vein. Each rat was then placed in a small animal stereotaxic apparatus, their head fixed in the lateral plane with ear bars, and their head placed in a 45-50° downward angle by placing their nose below an adjustable tooth bar. This position placed the animal's cistern magna at the highest vertical position of its body. The dural covering of the dorsal cistern magna was exposed.
A stainless steel cannula, with one end attached to PE-tubing, was placed in a stereotaxic tower cannula holder (open end down). The free end of the PE-tubing was attached to a 100 μL gas-tight Hamilton syringe with a 28-gauge needle. The cannula was adjusted to a position that approximated the middle of the exposed cistern magna, and the cannula lowered until it touched the dura mater. […] The dura has a degree of flexibility such that the cannula can depress it before it pierces it. After it was pierced, the dural rises to its original position, placing the cannula tip within the cistern magna space. The position of the cannula tip was again noted on the vertical axis of the tower. Typically, the cannula tip was 1.6-1.8 mm below the original dura-touch position. The cannula tip was then adjusted, if needed, to 1.8 mm below the dura, and the cannula sealed to the dura using skin glue. Samples of cisternal cerebrospinal (CSF) fluid were removed through cannula and PE-tubing by slowly drawing on the Hamilton syringe.
For the experimental procedure, baseline samples of blood and CSF were taken (“0” time points), followed by the IV administration of 750 nmol/kg TCMCB07. Samples of CSF (50 μL) and blood (1 mL) were collected at the following time points: 0, 5, 15, 30, and 90 minutes. […] Both CSF and plasma were stored at −80° C. until analyzed by (HPLC) with spectrofluoremetric monitoring at 230 nm excitation and […] emission (the fluorescence maximum for the Nal residue). […]

[3] = test system: Lewis sarcoma rat; experiment: Reversal of cachexia-induced lethargy; assay type: in vivo; conditions: once-daily peripheral dosing for 48 hours (2 IP doses), irrespective of tumor load
Description: In animals and humans, cachexia produces “lethargy,” i.e., the aversion to activity. Grossberg et al., J. Neurosci. 31(31): 11376-11386. […] This therapeutic effect is dependent on a stabilized melanocortin antagonist C-terminal extension. Video recordings characterized control animal behavior as neo-exploratory movement about the cage, i.e., repeated “sniffing” the air to presumably sample odors (e.g., neighboring animals), grooming, and intermittent bouts of eating and drinking. Caldecott-Hazard et al., J. Neurosci. 8(6): 1951-1961 (1988).
The animal typically remains in one position for an extended period of time (>1 minute). Occasionally it will change position, assuming the new position for an extended period. The rats show no grooming behavior, evident in the appearance of their coat and eyes.

[4] = test system: cachexia models; conditions: Marks et al., Cancer Res. 2001; cited from earlier work
[5] = test system: urethane-anesthetized rats; experiment: Cardiovascular activity of melanocortin peptides (MAP, heart rate, ECG); conditions: 200 nmol, n = 5
Procedure: These studies were performed in urethane-anesthetized rats, since anesthesia is required for six-lead ECG monitoring. […] Initial selection of doses was guided by FDA exploratory IND studies with a recommendation for at least a 100-fold excess of the human dose.

[6] = Sutton et al., Peptides 2008; cited from earlier work

CCCC[C@H](NC(C)=O)C(=O)N[C@H]1CC(=O)NCCCC[C@@H](C(=O)N[C@@H](C(=O)N2CCC[C@@H]2C(N)=O)C(C)C)NC(=O)[C@H](Cc2c[nH]c3ccccc23)NC(=O)[C@H](CCCN=C(N)N)NC(=O)[C@@H](Cc2ccc3ccccc3c2)NC(=O)[C@@H]2CCCN2C1=O [TCMCB07, Ac-Nle-c[Asp-Pro-D-Nal(2′)-Arg-Trp-Lys]-D-Val-D-Pro-NH2] (Ac-[Nle]DP[d2Nal]RWK[dV][dP]-NH2; lactam 2-7)
blood-brain barrier transport (concluded from peripheral vs ICV activity) ([1]; LPS model): both gastrointestinal and blood-brain barrier transport | proposed metabolite peak (retention time 12.9 minutes) in CSF ([2]; 5 and 30 minutes post IV 750 nmol/kg, peak height): peak height increases over time; also recorded: increased cerebrospinal fluid concentration | transport through the blood-brain-barrier (physical evidence) ([2]; IV 750 nmol/kg): direct physical evidence of TCMCB07 transport through the blood-brain-barrier | presence in CSF by mass spectrometry of HPLC effluent ([2]; after IV 750 nmol/kg, no obvious Nal-fluorescence peak): confirmed the presence of TCMCB07 in CSF

CCCC[C@H](NC(C)=O)C(=O)N[C@H]1CC(=O)NCCCC[C@@H](C(=O)N[C@@H](C(=O)N2CCC[C@@H]2C(N)=O)C(C)C)NC(=O)[C@H](Cc2c[nH]c3ccccc23)NC(=O)[C@H](CCCNC(=N)N)NC(=O)[C@@H](Cc2ccc3ccccc3c2)NC(=O)[C@@H]2CCCN2C1=O [TCMCB07, Ac-Nle-c[Asp-Pro-D-Nal(2′)-Arg-Trp-Lys]-D-Val-D-Pro-NH2] (Ac-[Nle]DP[d2Nal]RWK[dV][dP]-NH2; lactam 2-7)
food intake, 24 hours after LPS challenge [1]: stimulated appetites | body weight (percent of pre-LPS baseline), 24 hours after LPS challenge [1]: significantly gained weight | peripheral (IP) LPS anti-cachectic activity relative to TCMCB02 ([1]; IP): 10 fold | oral activity / gastrointestinal transport (in words) ([1]; gavage (intra-gastric) administration, LPS cachexia): significant enhancement of food intake | anti-cachectic activity after ICV (IVt) administration (in words) ([1]; LPS model): maintained ICV activity | peripheral (IP) anti-cachexia activity, feeding (in words) [1]: equivalent stimulation of feeding; also recorded: significant increase in feeding | activity following peripheral administration relative to TCMCB02 ([1]; peripheral administration): about 10 times | behavior of cachectic (lethargic) rats [3]: restored “normal” behavior to rats

AGRP: endogenous melanocortin system inhibitor (agouti-related protein); naturally occurring melanocortin antagonist protein (SSRRCVRLHESCLGQQVPCCDPCATCYCRFFNAFCYCRKLGTAMNPCSRT; ends and bridges not checked; cysteine pairing not given here; UniProt O00253 83-132, looked up)
reversal of cachexia-anorexia syndrome [4]: 100%

Ac-Nle-c[Asp-Pro-D-Nal(2′)-Arg-Trp-Lys]-Pro-Val-NH2 (Ac-[Nle]DP[d2Nal]RWKPV-NH2; lactam 2-7) [PG932]
Duration [5]: 4 ± 3 min | Peak Heart Rate Response (BPM) [5]: 13 ± 9 BPM | Peak MAP Response (Δ mm Hg) [5]: 5 ± 3 mm Hg | peripheral activity [6]: active peripherally

Ac-Nle-c[Asp-Pro-D-Nal(2′)-Arg-Trp-Lys]-β^3-Pro-β^2-Val-NH2 (Ac-[Nle]DP[d2Nal]RWK[β3hP][β2Val]-NH2; lactam 2-7) [TCMCB05]
food intake, 24 hours after LPS challenge [1]: stimulated appetites | body weight (percent of pre-LPS baseline), 24 hours after LPS challenge [1]: significantly gained weight | molar activity relative to TCMCB02 ([1]; ICV administration, LPS-induced cachexia): 10 fold | anti-cachectic activity after ICV (IVt) administration (in words) ([1]; LPS model): molar activity equivalent to TCMCB02 | peripheral (IP) anti-cachexia activity, feeding (in words) [1]: had IP anti-cachexia activity; also recorded: had peripheral anti-cachexia activity; also recorded: Only TCMCB07 produced a significant increase in feeding | behavior of cachectic (lethargic) rats [3]: restored “normal” behavior to rats
